# Test results: patent US20220204539A1, “CD73 INHIBITORS” (BioArdis LLC, priority 2019, published 2022)
# Biological target: T1, Cell surface CD73 of U87 MG human glioblastoma cells (Homo sapiens, UniProt P21589)
# T1 construct: Cell surface CD73 catalyzes the conversion of adenosine monophosphate (AMP) to adenosine and inorganic phosphate; endogenous in cells; host or cells: U87 MG human glioblastoma cells
# T1 sequence (P21589 27-549): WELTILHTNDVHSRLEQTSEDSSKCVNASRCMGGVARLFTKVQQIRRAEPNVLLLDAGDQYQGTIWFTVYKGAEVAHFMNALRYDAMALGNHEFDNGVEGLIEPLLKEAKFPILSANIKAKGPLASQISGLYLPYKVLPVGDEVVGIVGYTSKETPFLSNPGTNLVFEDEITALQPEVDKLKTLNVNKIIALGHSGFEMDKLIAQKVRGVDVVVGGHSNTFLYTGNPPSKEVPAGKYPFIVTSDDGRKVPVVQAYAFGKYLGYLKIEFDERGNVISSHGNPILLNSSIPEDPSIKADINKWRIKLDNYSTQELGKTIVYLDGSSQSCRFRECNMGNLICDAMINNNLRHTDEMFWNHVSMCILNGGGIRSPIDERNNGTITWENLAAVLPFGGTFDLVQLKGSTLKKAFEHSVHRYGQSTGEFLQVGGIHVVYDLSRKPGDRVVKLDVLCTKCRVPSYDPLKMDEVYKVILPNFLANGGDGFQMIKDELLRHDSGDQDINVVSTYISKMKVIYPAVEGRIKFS
# Experiment: CD73 Cellular Assay
# Format: cell-based
# Conditions: 5000 cells per well, 30 μM AMP substrate, read-out: Potency (IC50, CD73 cellular assay)
# Method: Cell surface CD73 catalyzes the conversion of adenosine monophosphate (AMP) to adenosine and inorganic phosphate. U87 MG human glioblastoma cells express high level of CD73. Cells are treated with compounds in a 96-well assay plate and supernatants are collected into a 384-well detection plate. The concentration of inorganic phosphate (Pi) in the supernatants is determined using the phosphate detection reagent, PiColorLock™ (Innova Bioscience, Cat #303-0125) following the manufacturer's instructions.
# Briefly, on the day of the assay, U87 MG cells were harvested and resuspended in assay buffer which consisted of 20 mM HEPES, pH=7.4, 137 mM NaCl, 5.4 mM KCl, 1.3 mM CaCl2, 4.2 mM NaHCO3 and 0.1% glucose. To test the effect of compounds on cellular CD73 enzymatic activity, 500 nL/well of compounds dissolved in DMSO were added to a 96-well TC-treated microplate (Corning #3599). Next, 80 μL/well of U87 MG cells in assay buffer were added to assay plate. After 30 minutes of incubation in an atmosphere of 5% CO2 at 37° C., 20 μL/well of 150 μM AMP (Adenosine 5′-monophosphate monohydrate, Sigma, Cat #01930) in assay buffer was added to assay plate. Final assay conditions consisted of 5000 cells per well in 0.5% DMSO and 30 μM AMP substrate. After 50 minutes of incubation in an atmosphere of 5% CO2 at 37° C., 50 μL/well of supernatant was transferred to the 384-well detection plate (Corning® NBS™ 384 well plates, Cat #3640). Meanwhile “Gold mix” was prepared shortly before use by adding 1/100 volume of accelerator to the PiColorLock™ Gold reagent. 12 μL/well of the “Gold mix” was added to detection plate containing 50 μL/well of supernatant and incubated at 25° C. for 5 minutes. 5 μL/well stabilizer was added to the detection plate and incubated at 25° C. for 30 minutes. The absorbance at 635 nm was measured on a Spark 10M instrument (TECAN). The percent (%) inhibition at each concentration of a compound was calculated relative to the OD value in the Max and Min control wells contained within each assay plate. The Max control wells contained cells and substrate as 0% inhibition, and the Min control wells only contained cells as 100% inhibition. The concentrations and percent inhibition values for a test compound are plotted and the concentration of a the compound required to achieve 50% inhibition (IC50) was determined with a four-parameter logistic dose response equation.
row,SMILES,IC50
1,"O=P(O)(O)CP(=O)(O)OC[C@H]1O[C@@H](c2cnc3c(NC4CCC(F)(F)CC4)nc(Cl)nn23)[C@H](O)[C@@H]1O [Compound 48, [({[(2R,3S,4R,5S)-5-{2-chloro-4-[(4,4-difluorocyclohexyl)amino]imidazo[2,1-f][1,2,4]triazin-7-yl}-3,4-dihydroxyoxolan-2-yl]methoxy}(hydroxy)phosphoryl)methyl]phosphonic Acid]",0.001 to 0.0099 µM
2,"O=P(O)(O)CP(=O)(O)OC[C@H]1O[C@@H](c2cnc3c(N4CC5CC5C4)nc(Cl)nn23)[C@H](O)[C@@H]1O (stereo partly drawn) [Compound 45, [({[(2R,3S,4R,5S)-5-(4-{3-azabicyclo[3.1.0]hexan-3-yl}-2-chloroimidazo[2,1-f][1,2,4]triazin-7-yl)-3,4-dihydroxyoxolan-2-yl]methoxy}(hydroxy)phosphoryl)methyl]phosphonic Acid]",< 0.001 µM

# Biological target: T2, Recombinant Human 5′-Nucleotidase (CD73) (Homo sapiens, UniProt P21589)
# T2 construct: CHO derived CD73 (Trp27-Lys547), with a C-terminal 6-His tag; 6-His (C); purchased R&D 5795-EN; host or cells: CHO
# T2 sequence (P21589 27-547): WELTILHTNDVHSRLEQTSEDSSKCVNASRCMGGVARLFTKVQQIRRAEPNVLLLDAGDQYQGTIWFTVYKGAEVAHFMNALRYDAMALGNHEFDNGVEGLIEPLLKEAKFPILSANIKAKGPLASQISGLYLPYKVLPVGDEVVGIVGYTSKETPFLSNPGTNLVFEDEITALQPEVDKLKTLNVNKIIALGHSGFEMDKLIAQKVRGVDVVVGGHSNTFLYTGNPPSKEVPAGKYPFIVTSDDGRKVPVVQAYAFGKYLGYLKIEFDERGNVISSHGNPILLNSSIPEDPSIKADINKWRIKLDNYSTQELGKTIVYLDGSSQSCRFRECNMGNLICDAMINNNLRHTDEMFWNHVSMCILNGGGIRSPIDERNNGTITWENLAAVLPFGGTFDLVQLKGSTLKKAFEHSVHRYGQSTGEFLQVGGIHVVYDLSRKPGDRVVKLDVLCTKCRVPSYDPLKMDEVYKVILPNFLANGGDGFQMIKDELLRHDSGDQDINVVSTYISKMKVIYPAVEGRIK
# Experiment: CD73 Enzyme Assay
# Format: biochemical
# Conditions: human CD73 0.5 nM, AMP 30 μM, PiColorLock phosphate detection; read-out: Potency (IC50, CD73 enzyme assay)
# From the text: Soluble recombinant CD73 catalyzes the conversion of adenosine monophosphate (AMP) to adenosine and inorganic phosphate. The phosphate detection reagent, PiColorLock™ (Innova Bioscience, Cat #303-0125) is based on the change in absorbance of the dye malachite green in the presence of inorganic phosphate (Pi) and this property can be exploited to measure any enzyme that generates Pi. Recombinant Human 5′-Nucleotidase (CD73) (R&D #5795-EN, CHO derived CD73 (Trp27-Lys547), with a C-terminal 6-His tag) was used in the enzymatic assay. This assay was run in a 384-well plate format (Corning® NBS™ 384 well plates, Cat #3640). The basic assay procedure involves two steps: 1) Enzyme reaction: The CD73 enzyme (R&D #5795-EN) is incubated in the presence or absence of compounds. AMP (sigma, cat #01930) is added to start the […] reaction. 2) Detection step: Gold mix is added to the assay system, then stabilizers are added. After incubation the absorbance of the solution is read at OD 635 nm. The recorded OD signal is proportional to the enzyme activity.
# Briefly, 25 μl human CD73 (0.5 nM final concentration) in the enzymatic buffer solutions (20 mM Tris, 25 mM NaCl, 1 mM MgCl2, pH 7.5, 0.005% Tween-20) were mixed with various concentrations of the test compound (dissolved in 100% DMSO). These solutions were incubated for 15 min at 25° C., and subsequently 25 μl AMP (30 μM final concentration) was added to start the reaction. The final reaction mixture of enzyme-substrate-compound was incubated for 20 min at 37° C. Meanwhile ‘Gold mix’ was prepared shortly before use by adding 1/100 vol. of accelerator to the PiColorLock™ Gold reagent. 12 μL/well of the ‘Gold mix’ was added to assay plate containing 50 μL enzyme reaction buffer and incubated at 25° C. for 5 min. 5 μL/well stabilizer was added to the assay plate and incubated at 25° C. for 30 min. The absorbance of the well solutions was measured at 635 nm on a Spark 10M instrument (TECAN).
# The percent (%) inhibition at each concentration of a compound was calculated relative to the OD value in the Max and Min control wells contained within each assay plate. The Max control wells contained enzyme and substrate as 0% inhibition, and the M control wells only contained substrate without enzyme as 100% inhibition. The concentrations and percent inhibition values for a test compound are plotted and the concentration of the compound required to achieve 50% inhibition (IC50) was determined with a four-parameter logistic dose response equation.
row,SMILES,IC50
1,"O=P(O)(O)CP(=O)(O)OC[C@H]1O[C@@H](c2cnc3c(NC4CCC(F)(F)CC4)nc(Cl)nn23)[C@H](O)[C@@H]1O [Compound 48, [({[(2R,3S,4R,5S)-5-{2-chloro-4-[(4,4-difluorocyclohexyl)amino]imidazo[2,1-f][1,2,4]triazin-7-yl}-3,4-dihydroxyoxolan-2-yl]methoxy}(hydroxy)phosphoryl)methyl]phosphonic Acid]",< 0.01 µM
2,"O=P(O)(O)CP(=O)(O)OC[C@H]1O[C@@H](c2cnc3c(N4CC5CC5C4)nc(Cl)nn23)[C@H](O)[C@@H]1O (stereo partly drawn) [Compound 45, [({[(2R,3S,4R,5S)-5-(4-{3-azabicyclo[3.1.0]hexan-3-yl}-2-chloroimidazo[2,1-f][1,2,4]triazin-7-yl)-3,4-dihydroxyoxolan-2-yl]methoxy}(hydroxy)phosphoryl)methyl]phosphonic Acid]",< 0.01 µM
3,"O=C1C[C@H](Nc2nc(Cl)nn3c([C@@H]4O[C@H](COP(=O)(O)CP(=O)(O)O)[C@@H](O)[C@H]4O)cnc23)CN1 [Compound 26, [({[(2R,3S,4R,5S)-5-{2-chloro-4-[(5-oxopyrrolidin-3-yl)amino]imidazo[2,1-f][1,2,4]triazin-7-yl}-3,4-dihydroxyoxolan-2-yl]methoxy}(hydroxy)phosphoryl)methyl]phosphonic acid]",0.01 to 0.099 µM
4,"CN(C)[C@H]1CC[C@H](Nc2nc(Cl)nn3c([C@@H]4O[C@H](COP(=O)(O)CP(=O)(O)O)[C@@H](O)[C@H]4O)cnc23)C1 [Compound 25, (((((2R,3S,4R,5S)-5-(2-chloro-4-(((1S,3S)-3-(dimethylamino)cyclopentyl)amino)imidazo[2,1-f][1,2,4]triazin-7-yl)-3,4-dihydroxytetrahydrofuran-2-yl)methoxy)(hydroxy)phosphoryl)methyl)phosphonic acid]",0.01 to 0.099 µM
5,"O=P(O)(O)CP(=O)(O)OC[C@H]1OC(c2cnc3c(NCc4ccccc4)ncnn23)[C@@H](F)[C@@H]1O (stereo in doubt) [Compound 3, [({[(2R,3R,4S,5S)-5-[4-(benzylamino)imidazo[2,1-f][1,2,4]triazin-7-yl]-4-fluoro-3-hydroxyoxolan-2-yl]methoxy}(hydroxy)phosphoryl)methyl]phosphonic Acid]",> 1 µM
6,"O=P(O)(O)CP(=O)(O)OC[C@H]1O[C@H](c2cnc3c(NCc4ccccc4)ncnn23)[C@@H](F)[C@@H]1O [Compound 4, [({[(2R,3R,4S,5R)-5-[4-(benzylamino)imidazo[2,1-f][1,2,4]triazin-7-yl]-4-fluoro-3-hydroxyoxolan-2-yl]methoxy}(hydroxy)phosphoryl)methyl]phosphonic Acid]",> 1 µM
7,"COP(=O)(CP1(=O)OCC[C@@H](c2cccc(Cl)c2)O1)OC[C@H]1O[C@@H](c2cnc3c(NC4CCCC4)nc(Cl)nn23)[C@H](O)[C@@H]1O (stereo partly drawn) [Compound 59, ((2R,3S,4R,5S)-5-(2-chloro-4-(cyclopentylamino)imidazo[2,1-f][1,2,4]triazin-7-yl)-3,4-dihydroxytetrahydrofuran-2-yl)methyl methyl (((4S)-4-(3-chlorophenyl)-2-oxido-1,3,2-dioxaphosphinan-2-yl)methyl)phosphonate]",> 1 µM
8,"O=P(O)(O)CP(=O)(O)OC[C@H]1O[C@@H](c2cnc3c(OC4CCCC4)ncnn23)[C@H](O)[C@@H]1O [Compound 61, (((((2R,3S,4R,1S)-5-(4-(cyclopentyloxy)imidazo[2,1-f][1,2,4]triazin-7-yl)-3,4-dihydroxytetrahydrofuran-2-yl)methoxy)(hydroxy)phosphoryl)methyl)phosphonic Acid]",0.1 to 0.999 µM
9,"O=P(O)(O)CP(=O)(O)OC[C@H]1O[C@@H](c2cnc3c(NC4CCCC4)nc(C4CC4)nn23)[C@H](O)[C@@H]1O [Compound 60, (((((2R,3S,4R,1S)-5-(4-(cyclopentylamino)-2-cyclopropylimidazo[2,1-f][1,2,4]triazin-7-yl)-3,4-dihydroxytetrahydrofuran-2-yl)methoxy)(hydroxy)phosphoryl)methyl)phosphonic Acid]",0.1 to 0.999 µM
10,"C=Cc1nc(NC2CCCC2)c2ncc([C@@H]3O[C@H](COP(=O)(O)CP(=O)(O)O)[C@@H](O)[C@H]3O)n2n1 [Compound 80, (((((2R,3S,4R,1S)-5-(4-(cyclopentylamino)-2-vinylimidazo[2,1-f][1,2,4]triazin-7-yl)-3,4-dihydroxytetrahydrofuran-2-yl)methoxy)(hydroxy)phosphoryl)methyl)phosphonic Acid]",0.01 to 0.099 µM
